How the values were obtained:
hPPARα, hPPARγ, hPPARδ = test: Gal4-hPPAR α/γ/δ transactivation: isoform selectivity and dose dependence; assay type: cell-based, human; conditions: 10 μM
Description: (§1) The PPAR activation was evaluated in vitro on a monkey kidney fibroblast line (COS-7) by measuring the transcriptional activity of chimeras constituted of the DNA binding domain of the Gal4 transcription factor of yeast and of the binding domain to the ligand of the different PPARs. The compounds were tested at doses between 0.01 and 100 μM on Gal4-PPARα, γ, δ chimeras. The induction factor (ratio between the luminescence induced by the compound and the luminescence induced by the control) was measured for each condition: the higher this factor, the more the compound has PPAR-activating properties.
(§2) The Gal4(RE)_TkpGL3, pGal4-hPPARα, pGal4-hPPARγ, pGal4-hPPARδ and pGal4-φ plasmids have been described in the literature (Raspe, Madsen et al. 1999). The pGal4-hPPARα, pGal4-hPPARγ and pGal4-hPPARδ constructs were obtained by cloning in the pGal4-φ vector of fragments of DNA amplified by PCR corresponding to the DEF domains of the human PPARα, PPARγ PPARδ nuclear receptors.
(§3) COS-7 cells were plated in 96 wells plates (5×10^4 cells/well) and transfected, in the presence of 10% foetal calf serum and 150 ng DNA per well, with a pGal4-PPAR/Gal4(RE)_TkpGL3 ratio of 1/10. The cells were then incubated for 24 hours with the compounds to be tested, without serum. At the end of the experiment, the cells were lysed and the luciferase activities were determined by means of Steady Glow Luciferase (Promega) according to the supplier's recommendations.
The inventive compounds were tested at doses between 0.01 and 100 μM on the 3 PPAR isoforms. The results obtained are detailed in FIGURES (1a), (1b) and (1c): evolution of the transactivation levels according to the dose for the three PPAR sub-types (α, γ, and δ respectively).

hPPARδ = molecular target: T1, hPPARδ (Homo sapiens, UniProt Q03181); test: Gal4-hPPARδ chimera transactivation in COS-7 cells (luciferase); assay type: cell-based; conditions: induction factor standardised to an internal reference, read-out: % hGal4-PPAR transactivation (10 μM) delta
T1 construct: fragments of DNA amplified by PCR corresponding to the DEF domains of the human PPARα, PPARγ PPARδ nuclear receptors; expressed in transfected cells; host or cells: COS-7 (monkey kidney fibroblast line)
T1 sequence (Q03181 211-439 limits assumed): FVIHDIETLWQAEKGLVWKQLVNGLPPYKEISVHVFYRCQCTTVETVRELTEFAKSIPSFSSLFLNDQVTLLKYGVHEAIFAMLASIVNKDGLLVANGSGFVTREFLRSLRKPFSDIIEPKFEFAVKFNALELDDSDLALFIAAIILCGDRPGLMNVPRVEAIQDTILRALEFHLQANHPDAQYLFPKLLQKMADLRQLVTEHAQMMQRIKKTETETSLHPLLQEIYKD
Description: as §1
(§4) The COS-7 cells from ATCC were cultivated in a DMEM medium supplemented with 10% (vol/vol) of foetal calf serum, 100 U/ml penicillin (Gibco, Paisley, UK) and 2 mM L-Glutamine (Gibco, Paisley, UK). The cells were incubated at 37° C. in a humid atmosphere containing 5% CO2.
as §2, §3
(§5) The inventive compounds were tested at 10 μM on the 3 PPAR isoforms. The results obtained are detailed in table (1). The transactivation measured is expressed as a response ratio versus an internal reference for each of the isoforms.
(§6) The compounds were tested at 10 μM on the Gal4-PPARα, γ, δ chimeras. The induction factor, i.e. the ratio between the luminescence induced by the compound and the luminescence induced by the control, was measured for each condition. It was then standardised in comparison to an internal reference and the results were then expressed in percentages : the higher the activation percentage, the more the compound has PPAR-activating properties.

hPPARα = molecular target: T2, hPPARα (Homo sapiens, UniProt Q07869); test: Gal4-hPPARα chimera transactivation in COS-7 cells (luciferase); assay type: cell-based; conditions: induction factor standardised to an internal reference, read-out: % hGal4-PPAR transactivation (10 μM) alpha
T2 construct: fragments of DNA amplified by PCR corresponding to the DEF domains of the human PPARα, PPARγ PPARδ nuclear receptors; expressed in transfected cells; host or cells: COS-7 (monkey kidney fibroblast line)
T2 sequence (Q07869 239-466 limits assumed): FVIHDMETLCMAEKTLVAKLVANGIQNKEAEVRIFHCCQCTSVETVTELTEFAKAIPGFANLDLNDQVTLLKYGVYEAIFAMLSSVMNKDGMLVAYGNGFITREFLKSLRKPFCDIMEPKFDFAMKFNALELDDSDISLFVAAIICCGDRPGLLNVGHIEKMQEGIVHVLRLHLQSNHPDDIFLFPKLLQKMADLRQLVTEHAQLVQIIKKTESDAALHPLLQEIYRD
Description: as §1, §4, §2, §3, §5, §6

hPPARγ = molecular target: T3, hPPARγ (Homo sapiens, UniProt P37231); test: Gal4-hPPARγ chimera transactivation in COS-7 cells (luciferase); assay type: cell-based; conditions: induction factor standardised to an internal reference, read-out: % hGal4-PPAR transactivation (10 μM) gamma
T3 construct: fragments of DNA amplified by PCR corresponding to the DEF domains of the human PPARα, PPARγ PPARδ nuclear receptors; expressed in transfected cells; host or cells: COS-7 (monkey kidney fibroblast line)
T3 sequence (P37231 238-503 limits assumed): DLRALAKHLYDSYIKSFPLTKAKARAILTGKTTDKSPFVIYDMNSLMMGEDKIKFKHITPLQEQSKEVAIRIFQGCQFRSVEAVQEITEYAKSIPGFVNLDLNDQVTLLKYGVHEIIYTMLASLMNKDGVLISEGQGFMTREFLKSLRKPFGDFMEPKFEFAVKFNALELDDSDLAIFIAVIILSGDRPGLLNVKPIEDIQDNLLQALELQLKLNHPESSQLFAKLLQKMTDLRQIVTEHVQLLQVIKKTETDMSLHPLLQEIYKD
Description: as §1, §4, §2, §3, §5, §6

[1] = molecular target: T4, ATP-dependent potassium channels (K+ATP) (Rattus norvegicus, UniProt Q09429); test: [3H]glibenclamide binding to ATP-dependent potassium channels of rat cerebral cortex; conditions: 1 h; 300 nM; specific displacement of [3H]glibenclamide 0.1 nM; read-out: KATP binding (300 nM)
T4 construct: the potassium channels derive from a rat's cerebral cortex; tissue CEREP; host or cells: rat cerebral cortex
Description: The results shown reflect the specific affinity of the inventive compounds on the ATP-dependent (K^+ATP) potassium channels. The specific binding measured corresponds to the difference between the total binding and the non-specific binding determined in the presence of an excess of non-marked reference ligand (glibenclamide 1 μM). The inventive compounds were tested at doses between 3 and 300 nM: the higher the percentage measured, the stronger the affinity of the compound for the ATP-dependent potassium channels.
The binding test was carried out at CEREP (Celle L'Evescault, France (86)) according to a protocol inspired by Angel et al. (Angel and Bidet 1991): the potassium channels derive from a rat's cerebral cortex and the reference compound is [^3H]glibenclamide at 0.1 nM. The protocol consists of incubation at 22° C. for one hour.

T4 sequence (Q09429 whole entry): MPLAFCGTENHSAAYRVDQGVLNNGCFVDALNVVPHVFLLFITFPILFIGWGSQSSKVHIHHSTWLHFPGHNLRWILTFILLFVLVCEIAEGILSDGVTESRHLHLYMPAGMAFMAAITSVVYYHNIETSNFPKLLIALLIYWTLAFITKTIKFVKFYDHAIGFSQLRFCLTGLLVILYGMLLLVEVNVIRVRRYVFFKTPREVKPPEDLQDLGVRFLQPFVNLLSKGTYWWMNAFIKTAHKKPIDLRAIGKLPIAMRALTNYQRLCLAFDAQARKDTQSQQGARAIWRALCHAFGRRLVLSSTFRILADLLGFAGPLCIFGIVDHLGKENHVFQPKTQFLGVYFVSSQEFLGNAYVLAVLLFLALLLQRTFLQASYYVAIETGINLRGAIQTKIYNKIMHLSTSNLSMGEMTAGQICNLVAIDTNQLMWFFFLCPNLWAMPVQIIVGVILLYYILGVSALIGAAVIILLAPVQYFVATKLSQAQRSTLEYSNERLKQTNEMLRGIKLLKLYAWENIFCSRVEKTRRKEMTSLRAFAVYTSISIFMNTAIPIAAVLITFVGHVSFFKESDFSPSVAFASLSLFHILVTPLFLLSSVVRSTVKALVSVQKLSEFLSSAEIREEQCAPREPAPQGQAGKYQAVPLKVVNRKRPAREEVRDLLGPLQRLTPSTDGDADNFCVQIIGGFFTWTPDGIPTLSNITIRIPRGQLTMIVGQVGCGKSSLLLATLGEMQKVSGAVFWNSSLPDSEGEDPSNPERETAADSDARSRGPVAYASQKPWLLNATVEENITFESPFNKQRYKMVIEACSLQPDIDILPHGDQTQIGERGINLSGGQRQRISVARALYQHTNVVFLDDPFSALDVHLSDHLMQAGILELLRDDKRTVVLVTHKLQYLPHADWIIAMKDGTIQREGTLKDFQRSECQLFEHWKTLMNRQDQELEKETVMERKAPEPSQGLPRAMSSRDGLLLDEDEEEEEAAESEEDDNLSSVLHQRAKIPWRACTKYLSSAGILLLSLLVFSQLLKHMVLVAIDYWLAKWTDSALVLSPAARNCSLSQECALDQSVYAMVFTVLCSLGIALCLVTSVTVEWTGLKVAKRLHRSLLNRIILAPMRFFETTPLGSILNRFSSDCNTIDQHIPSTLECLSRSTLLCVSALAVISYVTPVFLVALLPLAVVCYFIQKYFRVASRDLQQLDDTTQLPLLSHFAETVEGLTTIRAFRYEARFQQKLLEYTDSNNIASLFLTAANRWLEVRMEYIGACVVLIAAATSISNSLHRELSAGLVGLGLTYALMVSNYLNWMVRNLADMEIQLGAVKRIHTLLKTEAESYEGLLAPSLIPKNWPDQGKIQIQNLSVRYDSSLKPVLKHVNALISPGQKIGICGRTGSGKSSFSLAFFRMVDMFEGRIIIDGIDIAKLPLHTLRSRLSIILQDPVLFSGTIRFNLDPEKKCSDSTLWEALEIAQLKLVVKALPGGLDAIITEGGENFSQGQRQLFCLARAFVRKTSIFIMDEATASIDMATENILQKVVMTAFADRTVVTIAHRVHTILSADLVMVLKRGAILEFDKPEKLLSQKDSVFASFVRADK
T4 sequence (P70673 whole entry partner): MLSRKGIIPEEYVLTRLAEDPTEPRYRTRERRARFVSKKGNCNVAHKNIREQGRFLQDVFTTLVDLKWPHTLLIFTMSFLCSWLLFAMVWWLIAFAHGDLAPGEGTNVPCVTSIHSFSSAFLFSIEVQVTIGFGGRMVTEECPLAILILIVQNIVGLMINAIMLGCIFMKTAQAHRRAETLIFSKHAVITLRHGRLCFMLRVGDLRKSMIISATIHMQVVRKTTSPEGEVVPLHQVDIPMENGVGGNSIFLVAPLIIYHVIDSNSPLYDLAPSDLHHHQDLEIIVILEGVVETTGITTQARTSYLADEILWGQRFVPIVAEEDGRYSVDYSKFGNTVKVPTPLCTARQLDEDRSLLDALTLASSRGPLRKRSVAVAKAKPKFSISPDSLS

Row | Structure (SMILES) | selectivity with respect to PPAR isoforms (hPPARα, hPPARγ, hPPARδ) | activation at 10 µM (hPPARδ) [%] | activation at 10 µM (hPPARα) [%] | activation at 10 µM (hPPARγ) [%] | inhibition at 0.3 µM [1] [%]
1 | CC(C)(Oc1ccc(CC(=O)NC(CC2CCCCC2)c2ccccc2N2CCCCC2)cc1)C(=O)O (stereo not drawn) [Compound 19, 2-[4-[1-(2-cyclohexyl-1-(2-(1-piperidinyl)phenyl)ethyl)aminocarbonylmethyl]phenoxy]-2-methylpropanoic acid] | activates neither hPPARα nor hPPARδ | < 10 | < 10 | 95 | 
2 | CCCCC(NC(=O)Cc1ccc(OC(C)(C)C(=O)O)cc1)c1ccccc1Sc1ccccc1 (stereo not drawn) [Compound 36, 2-[4-[1-(1-(2-(phenylthio)phenyl)pentyl)aminocarbonylmethyl]phenoxy]-2-methylpropanoic acid] | activates hPPARα and hPPARγ, but not hPPARδ | < 10 | 54 | 73 | 45
3 | CCCCC(NC(=O)Cc1ccc(OC(C)(C)C(=O)NS(=O)(=O)C(F)(F)F)cc1)c1ccccc1N1CCCCC1 (stereo not drawn) [Compound 60, N-[trifluoromethylsulfonyl]-2-[4-[1-(1-(2-(1-piperidinyl)phenyl)pentyl)aminocarbonylmethyl]phenoxy]-2-methylpropanamide] | hPPARα selective | < 10 | 46 | < 10 | 49
4 | CCCCC(NC(=O)Cc1ccc(OC(C)(C)C(=O)O)cc1)c1ccc(-n2cccc2)cc1N1CCCCC1 (stereo not drawn) [Compound 49, 2-[4-[1-(1-(2-(1-piperidinyl)-4-(1H-pyrrolyl)phenyl)pentyl)aminocarbonylmethyl]phenoxy]-2-methylpropanoic acid] | activates hPPARγ and hPPARδ, but not hPPARα | 57 | < 10 | 87 | 
5 | CCCCC(NC(=O)Cc1ccc(OC(C)(C)C(=O)O)cc1)c1cccc(F)c1N1CCCCC1 (stereo not drawn) [Compound 45, 2-[4-[1-(1-(3-fluoro-2-(1-piperidinyl)phenyl)pentyl)aminocarbonylmethyl]phenoxy]-2-methylpropanoic acid] |  | < 10 | 31 | 62 | 66
6 | CC(C)CC(NC(=O)Cc1ccc(OC(C)(C)C(=O)O)cc1)c1ccc(-c2ccccc2)cc1N1CCCCC1 (stereo not drawn) [Compound 39, 2-[4-[1-(3-methyl-1-(2-(1-piperidinyl)-4-(phenyl)phenyl)butyl)aminocarbonylmethyl]phenoxy]-2-methylpropanoic acid] | ligand of hPPARα, hPPARγ and hPPARδ | 24 | 16 | 29 | 
7 | CCCCC(NC(=O)Cc1ccc(OC(C)(C)C(=O)NS(=O)(=O)c2ccccc2)cc1)c1ccccc1N1CCCCC1 (stereo not drawn) [Compound 61, N-[phenylsulfonyl]-2-[4-[1-(1-(2-(1-piperidinyl)phenyl)pentyl)aminocarbonylmethyl]phenoxy]-2-methylpropanamide] |  | < 10 | 20 | < 10 | 23
